In this test the target is human NaV 1.8 (Homo sapiens, UniProt Q9Y5Y9). Briefly: E-VIPR assay detecting and measuring NaV inhibition properties. It is filed as cell-based. Conditions: HEK cells expressing truncated human NaV 1.8. The method in brief:
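HEK cells expressing truncated, fully active human NaV1.8, with KIR2.1 BacMam co-transduction, were loaded with CC2-DMPE/DiSBAC6(3) voltage-sensing dyes for 20 min at room temperature. Compounds were tested in 11-point 3-fold dilutions (300 nM top final), optionally with 25% human serum, under electrical stimulation with FRET read-out.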

Where [1] appears, read: no human serum, read-out: IC50 in the E-VIPR Assay.
Where [2] appears, read: in the presence of human serum (compound numbers followed by *), read-out: IC50 in the E-VIPR Assay, performed in the presence of human serum.

Where two headings read alike, the source gives them in different places. Bounds are passed on as bounds.

Sequence of human NaV 1.8 (Q9Y5Y9 126-399 limits assumed): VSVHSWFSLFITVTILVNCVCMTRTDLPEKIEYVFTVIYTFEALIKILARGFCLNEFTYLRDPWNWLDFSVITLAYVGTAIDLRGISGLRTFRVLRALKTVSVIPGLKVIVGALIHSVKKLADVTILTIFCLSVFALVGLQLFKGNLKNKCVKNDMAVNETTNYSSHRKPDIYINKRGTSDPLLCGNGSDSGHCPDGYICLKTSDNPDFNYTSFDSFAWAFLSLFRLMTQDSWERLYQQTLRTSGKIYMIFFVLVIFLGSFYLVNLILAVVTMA
Sequence of human NaV 1.8 (Q9Y5Y9 660-890 limits assumed): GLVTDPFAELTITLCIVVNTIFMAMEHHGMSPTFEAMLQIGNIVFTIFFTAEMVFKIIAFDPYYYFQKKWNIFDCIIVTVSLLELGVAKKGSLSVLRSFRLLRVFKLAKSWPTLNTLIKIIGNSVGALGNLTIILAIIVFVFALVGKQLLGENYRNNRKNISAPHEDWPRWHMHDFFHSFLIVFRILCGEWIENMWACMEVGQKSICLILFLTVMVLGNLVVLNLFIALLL
Sequence of human NaV 1.8 (Q9Y5Y9 1148-1722 limits assumed): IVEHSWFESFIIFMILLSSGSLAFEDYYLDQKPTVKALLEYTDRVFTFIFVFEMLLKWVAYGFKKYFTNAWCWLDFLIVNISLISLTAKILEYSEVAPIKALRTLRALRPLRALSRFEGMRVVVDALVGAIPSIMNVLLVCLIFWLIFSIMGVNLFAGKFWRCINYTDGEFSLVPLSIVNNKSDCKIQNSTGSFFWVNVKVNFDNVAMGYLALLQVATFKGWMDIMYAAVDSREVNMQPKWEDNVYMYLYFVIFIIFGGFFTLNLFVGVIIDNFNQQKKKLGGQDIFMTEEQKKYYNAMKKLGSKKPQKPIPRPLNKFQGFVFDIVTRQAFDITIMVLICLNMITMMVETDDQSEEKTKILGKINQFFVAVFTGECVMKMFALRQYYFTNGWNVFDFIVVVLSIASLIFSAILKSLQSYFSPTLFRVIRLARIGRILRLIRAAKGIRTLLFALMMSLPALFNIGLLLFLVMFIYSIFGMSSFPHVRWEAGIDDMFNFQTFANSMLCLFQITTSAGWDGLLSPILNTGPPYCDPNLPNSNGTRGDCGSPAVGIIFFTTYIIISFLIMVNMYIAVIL

What is called IC50 is the concentration needed to halve the response being measured. On to `Cc1ncc(NC(=O)[C@@H]2O[C@@](C)(C(F)(F)F)[C@@H](C)[C@H]2c2ccc(F)c(F)c2OCCO)c(C)n1` [Compound 543, (2R,3S,4S,5R)-3-(3,4-difluoro-2-(2-hydroxyethoxy)phenyl)-N-(2,4-dimethylpyrimidin-5-yl)-4,5-dimethyl-5-(trifluoromethyl)tetrahydrofuran-2-carboxamide], for which the 50% inhibitory concentration (IC50) under setting [1] is not below 1000 nM. For `COc1c(C2C(C(=O)Nc3ccnc(C(O)C(C)O)c3)OC(C)(C(F)(F)F)C2C)ccc(F)c1C` (single isomer, unassigned) [Compound 148], the IC50 under setting [2] is less than 10 nM. Consider `COc1c([C@H]2[C@H](C(=O)Nc3ccnc(N4CC[C@@H](O)C4=O)c3)O[C@@](C)(C(F)(F)F)[C@H]2C)ccc(F)c1F` [Compound 471, (2R,3S,4S,5R)-3-(3,4-difluoro-2-methoxyphenyl)-N-(2-((R)-3-hydroxy-2-oxopyrrolidin-1-yl)pyridin-4-yl)-4,5-dimethyl-5-(trifluoromethyl)tetrahydrofuran-2-carboxamide], for which the 50% inhibitory concentration (IC50) under setting [1] is 10 to 100 nM. On the same count and under the same terms, for `C[C@H]1[C@@H](c2ccc(F)c(F)c2OCCN2CC3(COC3)C2)[C@H](C(=O)Nc2ccnc(CO)c2)O[C@@]1(C)C(F)(F)F` [Compound 618, (2R,3S,4S,5R)-3-(2-(2-(2-oxa-6-azaspiro[3.3]heptan-6-yl)ethoxy)-3,4-difluorophenyl)-N-(2-(hydroxymethyl)pyridin-4-yl)-4,5-dimethyl-5-(trifluoromethyl)tetrahydrofuran-2-carboxamide] the value was 10 to 100 nM. As to `COc1c([C@H]2[C@H](C(=O)Nc3ccc(S(C)(=N)=O)nc3)O[C@@](C)(C(F)(F)F)[C@H]2C)ccc(F)c1F` (single isomer, unassigned) [Compound 337, rel-(2R*,3S*,4S*,5R*)-3-(3,4-difluoro-2-methoxyphenyl)-4,5-dimethyl-N-(6-(S-methylsulfonimidoyl)-pyridin-3-yl)-5-(trifluoromethyl)-tetrahydrofuran-2-carboxamide], the IC50 under setting [1] lay in the range of 10 to 100 nM. Regarding `COc1c([C@H]2C[C@@](C)(C(F)(F)F)O[C@@H]2C(=O)Nc2cc(C(O)CO)ncc2F)ccc(F)c1F` (single isomer, unassigned) [Compound 690], the IC50 under setting [2] is not below 1000 nM. As to `COc1c([C@H]2[C@H](C(=O)Nc3cnc(C(F)CO)nc3)O[C@@](C)(C(F)(F)F)[C@H]2C)ccc(F)c1F` (stereo partly drawn) [Compound 446, (2R,3S,4S,5R)-3-(3,4-difluoro-2-methoxy-phenyl)-N-[2-(1-fluoro-2-hydroxy-ethyl)pyrimidin-5-yl]-4,5-dimethyl-5-(trifluoromethyl)tetrahydrofuran-2-carboxamide], the IC50 under setting [1] lay within 10 to 100 nM.

Turning to `CN=S(C)(=O)c1cc(NC(=O)C2OC(C)(C(F)(F)F)C(C)C2c2ccc(F)c(F)c2OC)ccn1` (single isomer, unassigned) [Compound 529, 3-(3,4-difluoro-2-methoxy-phenyl)-N-[2-(N,S-dimethylsulfonimidoyl)-4-pyridyl]-4,5-dimethyl-5-(trifluoromethyl)tetrahydrofuran-2-carboxamide], the IC50 under setting [1] lay within 100 to 1000 nM. For the compound `COc1c([C@H]2[C@H](C(=O)Nc3cnc(CCO)nc3)O[C@@](C)(C(F)(F)F)[C@H]2C)ccc(F)c1F` [Compound 237, (2R,3S,4S,5R)-3-(3,4-difluoro-2-methoxyphenyl)-N-(2-(2-hydroxyethyl)pyrimidin-5-yl)-4,5-dimethyl-5-(trifluoromethyl)tetrahydrofuran-2-carboxamide], under setting [1], the concentration for half-maximal inhibition (IC50) was 10 to 100 nM. As for `Cc1cncc(NC(=O)C2OC(C)(C(F)(F)F)C(C)C2c2ccc(F)c(F)c2OC2CC(O)C2)c1` [Compound 665, (2R,3S,4S,5R)-3-(3,4-difluoro-2-((1S,3R)-3-hydroxycyclobutoxy)phenyl)-4,5-dimethyl-N-(5-methylpyridin-3-yl)-5-(trifluoromethyl)tetrahydrofuran-2-carboxamide], under setting [1], the IC50 was 10 to 100 nM. Still for that read-out and setting: next, `COc1c([C@H]2[C@H](C(=O)Nc3ccc(S(C)(=N)=O)nc3)O[C@@](C)(C(F)(F)F)[C@H]2C)ccc(F)c1F` (single isomer, unassigned) [Compound 336, rel-(2R*,3S*,4S*,5R*)-3-(3,4-difluoro-2-methoxyphenyl)-4,5-dimethyl-N-(6-(S-methylsulfonimidoyl)-pyridin-3-yl)-5-(trifluoromethyl)-tetrahydrofuran-2-carboxamide]: less than 10 nM. With `COc1c([C@H]2[C@H](C(=O)Nc3ncco3)O[C@@](C)(C(F)(F)F)[C@H]2C)ccc(F)c1F` [Compound 196, (2R,3S,4S,5R)-3-(3,4-difluoro-2-methoxyphenyl)-4,5-dimethyl-N-(oxazol-2-yl)-5-(trifluoromethyl)tetrahydrofuran-2-carboxamide], the IC50 under setting [1] was less than 10 nM. Regarding `COc1c([C@H]2[C@H](C(=O)NCCN3CCNC(=O)C3)O[C@@](C)(C(F)(F)F)[C@H]2C)ccc(F)c1F` [Compound 302, (2R,3S,4S,5R)-3-(3,4-difluoro-2-methoxyphenyl)-4,5-dimethyl-N-(2-(3-oxopiperazin-1-yl)ethyl)-5-(trifluoromethyl)tetrahydrofuran-2-carboxamide], under setting [1], the IC50 was not below 1000 nM. On to `COCCOc1c([C@H]2[C@H](C(=O)Nc3ccc(=O)n(C)c3)O[C@@](C)(C(F)(F)F)[C@H]2C)ccc(F)c1F` [Compound 584, (2R,3S,4S,5R)-3-(3,4-difluoro-2-(2-methoxyethoxy)phenyl)-4,5-dimethyl-N-(1-methyl-6-oxo-1,6-dihydropyridin-3-yl)-5-(trifluoromethyl)tetrahydrofuran-2-carboxamide], for which the concentration for half-maximal inhibition (IC50) under setting [1] was less than 10 nM.

For the compound `C=Cc1c([C@H]2[C@H](C(=O)Nc3cn(C(F)F)nc3C)O[C@@](C)(C(F)(F)F)[C@H]2C)ccc(F)c1F` [Compound 676, (2R,3S,4S,5R)-3-(3,4-difluoro-2-vinylphenyl)-N-(1-(difluoromethyl)-3-methyl-1H-pyrazol-4-yl)-4,5-dimethyl-5-(trifluoromethyl)tetrahydrofuran-2-carboxamide], the IC50 under setting [1] is less than 10 nM. In the case of `Cc1nn(C(F)F)cc1NC(=O)[C@@H]1O[C@@](C)(C(F)(F)F)[C@@H](C)[C@H]1c1ccc(F)c(F)c1CO` [Compound 668, (2R,3S,4S,5R)-3-(3,4-difluoro-2-(hydroxymethyl)phenyl)-N-(1-(difluoromethyl)-3-methyl-1H-pyrazol-4-yl)-4,5-dimethyl-5-(trifluoromethyl)tetrahydrofuran-2-carboxamide], the IC50 under setting [1] is 10 to 100 nM. For the compound `C[C@@H]1[C@H](c2ccc(F)c(F)c2OC(F)F)[C@@H](C(=O)Nc2ccc(=O)n(C)c2)O[C@]1(C)C(F)(F)F` (single isomer, unassigned) [Compound 67], the IC50 under setting [2] is not below 1000 nM. Regarding `CCOc1c(C2CC(C)(C(F)(F)F)OC2C(=O)Nc2ccn3c(OC)nnc3c2)ccc(F)c1F` (stereo not shown) [Compound 708], the IC50 under setting [2] lay within 100 to 1000 nM. `COc1c([C@H]2[C@H](C(=O)Nc3cn(C[C@@H](O)CO)nc3C)O[C@@](C)(C(F)(F)F)[C@H]2C)ccc(F)c1F` [Compound 201, (2R,3S,4S,5R)-3-(3,4-difluoro-2-methoxyphenyl)-N-(1-((R)-2,3-dihydroxypropyl)-3-methyl-1H-pyrazol-4-yl)-4,5-dimethyl-5-(trifluoromethyl)tetrahydrofuran-2-carboxamide]: the IC50 under setting [1] is less than 10 nM. Still for that read-out and setting: next, `Cc1nn(C(F)F)cc1NC(=O)[C@@H]1O[C@@](C)(C(F)(F)F)[C@@H](C)[C@H]1c1ccc(F)c(F)c1OCC(=O)N(C)O` [Compound 604, (2R,3S,4S,5R)-3-(3,4-difluoro-2-(2-(hydroxy(methyl)amino)-2-oxoethoxy)phenyl)-N-(1-(difluoromethyl)-3-methyl-1H-pyrazol-4-yl)-4,5-dimethyl-5-(trifluoromethyl)tetrahydrofuran-2-carboxamide]: 100 to 1000 nM. As to `C[C@H]1[C@@H](c2ccc(F)c(F)c2OCCO)[C@H](C(=O)Nc2ncn(C3CCOC3)n2)O[C@@]1(C)C(F)(F)F` (stereo partly drawn) [Compound 561, (2R,3S,4S,5R)-3-(3,4-difluoro-2-(2-hydroxyethoxy)phenyl)-4,5-dimethyl-N-(1-(tetrahydrofuran-3-yl)-1H-1,2,4-triazol-3-yl)-5-(trifluoromethyl)tetrahydrofuran-2-carboxamide], the concentration for half-maximal inhibition (IC50) under setting [1] is not below 1000 nM.

With `COc1c([C@H]2[C@H](C(=O)Nc3ccnc(C[C@H](O)CO)c3)O[C@@](C)(C(F)(F)F)[C@H]2C)ccc(F)c1F` [Compound 333, (2R,3S,4S,5R)-3-(3,4-difluoro-2-methoxy-phenyl)-N-[2-[(2S)-2,3-dihydroxypropyl]-4-pyridyl]-4,5-dimethyl-5-(trifluoromethyl)tetrahydrofuran-2-carboxamide], the IC50 under setting [1] is less than 10 nM.

For `COc1ncc(NC(=O)[C@@H]2O[C@@](C)(C(F)(F)F)[C@@H](C)[C@H]2c2ccc(F)c(F)c2OC)cc1CO` [Compound 247, (2R,3S,4S,5R)-3-(3,4-difluoro-2-methoxyphenyl)-N-(5-(hydroxymethyl)-6-methoxypyridin-3-yl)-4,5-dimethyl-5-(trifluoromethyl)tetrahydrofuran-2-carboxamide], the IC50 under setting [1] is 100 to 1000 nM.

As for `COc1c([C@H]2[C@H](C(=O)Nc3ccc(C4(N)COC4)nc3)O[C@@](C)(C(F)(F)F)[C@H]2C)ccc(F)c1F` [Compound 213, (2R,3S,4S,5R)-N-(6-(3-aminooxetan-3-yl)pyridin-3-y1)-3-(3,4-difluoro-2-methoxyphenyl)-4,5-dimethyl-5-(trifluoromethyl)tetrahydrofuran-2-carboxamide], the IC50 under setting [1] lay within 10 to 100 nM. The same measure, in the same setting: for `Cc1c(F)ccc([C@H]2[C@H](C(=O)Nc3ccn(C)c(=O)c3)O[C@@](C)(C(F)(F)F)[C@H]2C)c1OC(F)F` (stereo in doubt) [Compound 100, rel-(2R,3S,4S,5R)-3-(2-(difluoromethoxy)-4-fluoro-3-methylphenyl)-4,5-dimethyl-N-(1-methyl-2-oxo-1,2-dihydropyridin-4-yl)-5-(trifluoromethyl)tetrahydrofuran-2-carboxamide] the value was less than 10 nM.
